# Reference: patent US12564639B2, “Cationic nanostructures for intra-cartilage delivery of contrast agents and diagnostic uses thereof” (Northeastern University, priority 2019, dated 2026)
# What was measured:
# [1] = Zeta potential (Zetasizer Nano-ZS90); assay type: physicochemical; details: for Zeta potential (ζ): nanopure water, 0.45 mg/mL, Mean ± SD
# Description: • 1. Use the procedure in Section F to conjugate 4 moles of biotin-PEG-IOX with Avidin at its biotin binding sites to synthesize mAv-IOX. • 2. Use Zetasizer Nano-ZS90 to detect the zeta potential of unmodified Avidin and mAv-IOX in DI water; the zeta potential (Q, mV) of Avidin and mAv-IOX should be around 18.3±0.5 mV and 8.69±0.7 mV, respectively. • 3. Obtain 3 mm diameter×1 mm height cylindrical cartilage discs with intact superficial zone (SZ) from femoropatellar grooves of 1-2-week-old bovine knee joints and freeze them in PBS containing protease inhibitors (PI) until further use. • 4. […] Use a freezing point osmometer to balance the osmolality of these contrast agent solutions to 400±20 mOsm/kg by adding 1 M sodium chloride solution dropwise. • 5. […] Secure cartilage explants using low X-ray-absorption foam inside a 20.5 mm CT scan tube. Ensure that the cartilage explant stays secured in the foam during CT imaging. • 7. Take one of the equilibrated cartilage explants from contrast agent solution and gently using Kimwipes to remove solution from the tissue surface. • 8. Set CT35 with an isotropic voxel resolution of 10 μm, 70 kVp tube voltage, 113 μA current, and 200 ms integration time method. The CT data will be saved as DICOM format. ImageJ software will automatically display Hounsfield Unit (HU) by importing DICOM images. • 9. Process the CT imaging data acquired from CT35 using ImageJ software: (i) Go to Image→Stacks→Images to Stack to convert CT imaging data to a cartilage stack. (ii) Go to Image→Stacks→Reslice and select ‘starting at top’ to acquire a new stack showing vertical section of cartilage from superficial zone (SZ) to deep zone (DZ). […] The GAG content (mg/mg wet weight) is calculated as: […]
# PEGylation of Avidin in 1:2 and 1:4 mAv was further confirmed by using H-Class Acquity UPLC (Waters Corp, Milford, MA) equipped with an Acquity UPLC BEH200 Size Exclusion Column (200 Å, 1.7 μm column, 4.6×300 mm) with 20 mM ammonium bicarbonate buffer as the mobile phase at 0.2 mL/min. Avidin was detected at 280 nm. […]
# [2] = Hydrodynamic diameter estimated from molecular weight (Stokes-Einstein equation); assay type: physicochemical
# Description: As such, its intra-cartilage transport diffusivities (estimated using setup in FIG. 3A) were not affected either (Table 1). The hydrodynamic diameter of Avidin and mAv was estimated from their molecular weights using the Stokes-Einstein equation. The net size of mAv was within the 10 nm limit enabling it to penetrate through the full thickness of cartilage similar to unmodified Avidin.
# [3] = test system: IL-1α treated cartilage explants; test: IL-1α treated cartilage explant culture OA model: GAG loss (DMMB assay); assay type: cell-based, bovine; details: 16-day culture
# Description: Tissue explants for all treatment conditions were matched for depth and location to prevent any bias. […] Note that mAv here refers to 1:4 mAv configuration. Media was changed every 2 days and IL-1α was replenished at each medium change. […] IL-1α concentration was chosen as it represents a moderately aggressive cytokine treatment. […] After 16 days of culture, cartilage explants were weighed and digested in proteinase K. The cumulative GAGs released to the media and residual GAGs in the digested explants were measured using the DMMB assay. Nitrite content was measured using the Griess assay as an indicator of nitric oxide (NO) release from tissues. Equal volumes of Griess reagent and culture media collected every two days were mixed and incubated at room temperature for 15 min, and absorbance at 540 nm was measured using a plate reader. Sodium nitrite was used as a standard.
# [4] = multiple IA injections, 2.5 mg every 3 days or 0.5 mg/kg; cited from earlier work
# [5] = test system: IL-1α treated cartilage explants; test: IL-1α treated cartilage explant culture OA model: Safranin-O histology; assay type: cell-based, bovine; details: 16 days
# Procedure: (§1) 3 mm diameter cartilage explants harvested from calf knee joints were equilibrated separately in serum free culture media containing 96.2% low-glucose DMEM, 1.0% HEPES, 1.0% NEAA, 1.0% PSA, 0.4% proline and 0.4% ascorbic acid for 48 h at 37° C., 5% CO2 for 2 days prior to treatment. Tissue explants for all treatment conditions were matched for depth and location to prevent any bias. To test the biological effectiveness of mAv-Dex, equilibrated cartilage explants were treated with or without IL-1α (2 ng/mL) for 16 days in combination with (i) a single dose of 100 nM free Dex, (ii) a continuous dose of 100 nM free Dex, (iii) a single dose of 10 μM free Dex (iv) a single dose of fast release mAv-Dex (10 μM Dex) or (v) a single dose of controlled release mAv-Dex (2:1:1) (10 μM Dex). To evaluate the effect of mAv carrier alone on cartilage health, a high one-time dose of 10 μM mAv, which is 10× higher than that used to deliver 10 μM Dex in condition (v) above, was also tested in the absence of IL-1α. Note that mAv here refers to 1:4 mAv configuration. Media was changed every 2 days and IL-1α was replenished at each medium change. […] IL-1α concentration was chosen as it represents a moderately aggressive cytokine treatment.
# Cartilage explants were fixed in 4% formalin, embedded in 0.75% agarose for ease of handling, dehydrated in a graded series of ethanol and xylenes, and embedded in paraffin. Transverse sections (to obtain full thickness cartilage slices with superficial and deep zones) were taken at 5 μm thickness. These sections were stained with 0.5% Safranin O, 0.02% Fast Green and Weigert's iron hematoxylin for GAG detection. Adjacent sections underwent antigen retrieval using 0.1% hyaluronidase, 0.1% pronase in PBS for 30 min at 37° C., then were immunostained for type II collagen using 1 μg/mL mouse IgG1 (clone II-II6B3) or normal mouse IgG1 as isotype control. Antibody detection was performed using a VectaStain Elite ABC kit with 3,3-diaminobenzidine staining. Stained sections were imaged using a Zeiss Axioplan2 equipped with an AxioCam HRc camera.
# [6] = test system: chondrocytes in cartilage explants; test: IL-1α treated cartilage explant culture OA model: chondrocyte viability (FDA/PI); assay type: cell-based; details: Day 16
# Procedure: as §1
# Chondrocyte viability was analyzed by staining cartilage explants with FDA (4.0 mg/mL) and PI (10.0 mg/mL) for live (green) and dead (red) cells, respectively. Slices were washed with PBS and imaged at 4× magnification (Nikon Eclipse Ts2R). The live and dead images were overlaid using ImageJ. At the end of the culture, tissue explants were incubated with media containing 1× resazurin sodium salt (alamarBlue assay) for 3 h in dark at 37° C. and 5% CO2. Cell metabolic activity was estimated by measuring fluorescence at 530 nm excitation and 590 nm emission wavelengths.
# [7] = test system: chondrocytes in cartilage explants; test: IL-1α treated cartilage explant culture OA model: chondrocyte metabolism (alamarBlue); assay type: cell-based; details: Day 16
# Procedure: (§2) 3 mm diameter cartilage explants harvested from calf knee joints were equilibrated separately in serum free culture media containing 96.2% low-glucose DMEM, 1.0% HEPES, 1.0% NEAA, 1.0% PSA, 0.4% proline and 0.4% ascorbic acid for 48 h at 37° C., 5% CO2 for 2 days prior to treatment. Tissue explants for all treatment conditions were matched for depth and location to prevent any bias. To test the biological effectiveness of mAv-Dex, equilibrated cartilage explants were treated with or without IL-1α (2 ng/mL) for 16 days in combination with (i) a single dose of 100 nM free Dex, (ii) a continuous dose of 100 nM free Dex, (iii) a single dose of 10 μM free Dex (iv) a single dose of fast release mAv-Dex (10 μM Dex) or (v) a single dose of controlled release mAv-Dex (2:1:1) (10 μM Dex). To evaluate the effect of mAv carrier alone on cartilage health, a high one-time dose of 10 μM mAv, which is 10× higher than that used to deliver 10 μM Dex in condition (v) above, was also tested in the absence of IL-1α. Note that mAv here refers to 1:4 mAv configuration. […]
# Chondrocyte viability was analyzed by staining cartilage explants with FDA (4.0 mg/mL) and PI (10.0 mg/mL) for live (green) and dead (red) cells, respectively. […] Cell metabolic activity was estimated by measuring fluorescence at 530 nm excitation and 590 nm emission wavelengths.
# [8] = test system: IL-1α treated cartilage explants; test: IL-1α treated cartilage explant culture OA model: nitrite release (Griess assay); assay type: cell-based, bovine; details: continuous dose 100 nM, Day 8
# Procedure: as §2, with “Dex).” for “Dex). To evaluate the effect of mAv carrier alone on cartilage health, a high one-time dose of 10 μM mAv, which is 10× higher than that used to deliver 10 μM Dex in condition (v) above, was also tested in the absence of IL-1α. Note that mAv here refers to 1:4 mAv configuration.”
# After 16 days of culture, cartilage explants were weighed and digested in proteinase K. The cumulative GAGs released to the media and residual GAGs in the digested explants were measured using the DMMB assay. Nitrite content was measured using the Griess assay as an indicator of nitric oxide (NO) release from tissues. Equal volumes of Griess reagent and culture media collected every two days were mixed and incubated at room temperature for 15 min, and absorbance at 540 nm was measured using a plate reader. […]
# [9] = IA 40 mg every 3 months for 2 years; cited from earlier work
# [10] = one week following ACLT, read at 3 weeks, vs free Dex; cited from earlier work
# [11] = test system: bovine cartilage explants; details: cited from earlier work
# [12] = Intra-cartilage diffusion kinetics (non-equilibrium one-dimensional diffusion, transport chamber); details: 3 μM upstream, 400-600 μm cartilage disk; Mean ± SD
# Procedure: The interior walls of the transport chamber were equilibrated in 0.5% nonfat-dried bovine milk solution in PBS for 15 min to lessen non-specific binding of solutes to inner walls of the transport chamber. Subsequently, the compartments of chamber were rinsed with DI water. 3 μM solution of labeled Avidin or mAv was added to the upstream chamber. A 6 mm diameter cartilage disk of 400-600 μm thickness was placed between the upstream and downstream compartments. Concentration of fluorescently labeled solutes in the downstream chamber was measured over time by exciting the downstream solution using a 480 nm laser line and detecting the emission. Non-equilibrium diffusion curves were thereby obtained by plotting normalized downstream concentration (CD) to upstream concentration (Cu) over time. Effective Diffusivity (DEFF), which is the diffusivity of solutes in cartilage while binding interactions exist within the tissue was estimated as follows:
# [formula] where L corresponds to cartilage thickness, and τLag is the time it takes to reach a steady state flux. τLag was estimated using the time-axis intercept of the linear slope of the normalized concentration versus time.
# [13] = rabbit, in vivo; cited from earlier work
# [14] = Equilibrium uptake in cartilage explants (uptake ratio Ru); details: 50% GAG depleted cartilage (mid-stage OA)
# Procedure: Cartilage explants were harvested from the femoropatellar groove of 2-3-week-old bovine knees (Research 87, Boylston, MA) with a 3 mm diameter biopsy punch. The cylindrical plugs were then sliced to obtain the superficial 1 mm layer of cartilage, and frozen until use. […] Cartilage disks were equilibrated in 300 μL of 8.5 μM of labeled Avidin, 1:2 mAv or 1:4 mAv in presence of protease inhibitors for 24 h in a 96-well plate at 37° C. on gentle shaking to prevent formation of stagnant layers. To minimize evaporation, the empty wells in the plate were filled with DI water and the plate was wrapped in parafilm. At the end of the experiment, the surfaces of each disk were quickly blotted with Kimwipes and the wet weight was measured. The equilibrium bath fluorescence was measured using a plate reader (Synergy H1, Biotek). The final concentration was calculated based on a linear calibration correlating fluorescence to concentration of labeled Avidin. The moles of solutes absorbed into the cartilage were calculated using the difference between the initial and equilibrium concentration of the bath. The concentration of solutes inside was calculated by normalizing the number of moles inside cartilage to the wet weight of the tissue. The uptake ratio (Ru) was defined as the ratio of the concentration of solutes inside the tissue (Ctissue) to that of the solute in the equilibrium bath (Cbath). […]
# chondrocytes = details: incubation with chondrocytes in culture; cited from earlier work
molecule,measurement,setting,value
1:2 mAv: multi-arm Avidin containing two biotinylated 8-arm PEGs,Zeta potential (ζ),[1],20.3 ± 0.3 mV
same,Diameter (net size),[2],~7.6 nm
"C[C@@H]1C[C@H]2[C@@H]3CCC4=CC(=O)C=C[C@]4(C)[C@@]3(F)[C@@H](O)C[C@]2(C)[C@@]1(O)C(=O)CO [Dex, dexamethasone]",suppression of IL-1α induced GAG loss,[3]; continuous dose 100 nM,effectively suppress IL-1α induced GAG loss
same,suppression of IL-1α induced GAG loss,[3]; single dose 100 nM,not effective
same,suppression of IL-1α induced GAG loss,[3]; single dose 10 μM Dex,significantly suppressed IL-1α induced GAG loss
same,inflammation and cartilage protection,[4],significantly reduce inflammation and protect cartilage
same,toxicity of high multi-dose regimen,[4],systemic toxicity in vital organs
same,Safranin-O GAG staining,[5]; continuous dose 100 nM,mostly rescued
same,Safranin-O GAG staining,[5]; single dose 100 nM,marginally affected
same,Safranin-O GAG staining,[5]; single dose 10 μM Dex,protected GAG content to a greater extent than at 100 nM
same,rescue of chondrocyte viability,[6]; continuous dose 100 nM,rescued effectively
same,rescue of chondrocyte viability,[6]; single dose 100 nM,not with a single dose
same,rescue of chondrocyte viability,"[6]; single dose 10 μM Dex, listed as free Dex",not as effective
same,rescue of IL-1α reduced cell metabolism rates,[7],not rescued
same,lower nitrite levels compared to single dose of 100 nM Dex,[8],3.5 ×
"CC1(C)O[C@@H]2C[C@H]3[C@@H]4CCC5=CC(=O)C=C[C@]5(C)[C@@]4(F)[C@@H](O)C[C@]3(C)[C@]2(C(=O)CO)O1 [TCA, triamcinolone acetonide]",cartilage loss,[9],greater cartilage loss compared to saline
Av-Dex: Avidin covalently conjugated with 4 moles of Dexamethasone using its four biotin binding sites,efficacy of single low dose IA injection,[10],"suppressed injury induced joint inflammation, synovitis, incidence of osteophyte formation and restored trabecular properties at 3 weeks significantly greater than free Dex"
Avidin: cationic glycoprotein with four biotin binding sites,zeta potential,"[1]; in DI water, 'should be around'",around 18.3±0.5 mV
same,Zeta potential (ζ),[1],18.3 ± 0.5 mV
same,"Avidin dose shown not to affect GAG loss, chondrocyte viability or biosynthesis rates",[11],less than 100 μM
same,intra-cartilage effective diffusivity DEFF,[12],8.4 ± 2.0 × 10^−8 cm^2/s
same,Diameter (net size),[2],~7.0 nm
same,intra-cartilage uptake ratio,[13],180
same,presence in cartilage after IA administration,[13],present through the full thickness of cartilage two weeks following its IA administration
same,drop of uptake following 50% GAG depletion compared to healthy condition,[14],13.2 ×
RRAAAARRAAAARRAAAARR [CPC+8],uptake by chondrocytes,chondrocytes,not uptaken by the chondrocytes
